Values of other authors in article PMC3983201, “6-Methoxyflavanones as Bitter Taste Receptor Blockers for hTAS2R39” (PLoS ONE, 2014).
Like-named read-outs stand apart in the source and are kept apart here.

Key:
[1] = test system: hTAS2R31; parameters: method as in PMID 22059530; conditions: cited from earlier work
[2] = test system: bitter taste; parameters: method as in PMID 16028996; conditions: in-vivo sensory masking, unknown mechanism; cited from earlier work
[3] = biological target: T1, hTAS2R39 (Homo sapiens, UniProt P59534); parameters: method as in PMID 24117141; conditions: cited from earlier work
T1 construct: first 45 amino acids of rat somatostatin receptor type 3 (sst3 membrane-targeting tag) (N); expressed in transfected cells; host or cells: HEK293 T-Rex Flp-In cells stably expressing Gα16-gust44; receptor in pcDNA5/FRT, induced with doxycycline
T1 sequence (P59534 1-338): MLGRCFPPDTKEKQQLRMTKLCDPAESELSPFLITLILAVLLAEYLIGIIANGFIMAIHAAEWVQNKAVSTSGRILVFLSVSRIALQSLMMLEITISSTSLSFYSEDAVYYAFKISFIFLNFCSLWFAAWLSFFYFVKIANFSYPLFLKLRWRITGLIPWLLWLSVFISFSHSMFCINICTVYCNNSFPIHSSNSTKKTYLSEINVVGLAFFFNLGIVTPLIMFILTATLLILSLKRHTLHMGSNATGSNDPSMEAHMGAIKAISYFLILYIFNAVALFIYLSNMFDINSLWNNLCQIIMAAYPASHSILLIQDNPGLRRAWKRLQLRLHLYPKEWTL

COc1cc(O)c2c(c1)O[C@H](c1ccc(O)cc1)CC2=O [Compound 14, Sakuranetin]
antagonism of hTAS2R31 [1]: c reported as antagonist of hTAS2R31 [10].
antagonism of hTAS2R31 ([1]; listed as sakuranetin): antagonists for hTAS2R31

COc1cc([C@@H]2CC(=O)c3c(O)cc(O)cc3O2)ccc1O [Compound 7, Homoeriodictyol]
reduction of the bitter taste of different chemical classes of bitter molecules [2]: up to 40%
activation of hTAS2R39 in a previous study [3]: a activated hTAS2R39 in a previous study [16], but was selected for testing as antagonist due to ability to reduce bitter taste perception in sensory tests [9].

COc1cc2c(c(O)c1OC)C(=O)C[C@@H](c1ccc(O)cc1)O2 [6-methoxysakuranetin, reference compound]
antagonism of hTAS2R31 [1]: antagonists for hTAS2R31
